Format in all cases: physicochemical
A short description of data set [1]: Chemical stability of aspirin in ASA/Leucine formulations by RP-HPLC after storage. Conditions: reference standard, no storage condition. On the procedure: Chemical stability of aspirin in the formulations were tested by RP-HPLC before and after the formulations were exposed to various storage conditions.
Data set [2] can be described thus: Potency and purity by RP-HPLC of aspirin/leucine formulations. Conditions: before storage. On the procedure:
The properties of the ASA formulation were evaluated, including geometric particle size distribution (e.g., using laser diffraction such as the Malvern Dry Method); particle morphology (e.g., using scanning electron microscopy (SEM)); ID/Assay and purity (e.g., by HPLC); X-ray powder diffraction (XRPD); and aerosol properties by NGI.

Data set [3] can be described thus: ASA and L-leucine absolute solubility in EtOH/water blends. On the procedure: To define the absolute solubility of ASA and L-leucine in a variety of solvent blends, solvent blends were evaluated for solubility of ASA and L-leucine by visual confirmation. As used in this example, unless specified otherwise, leucine is L-leucine.
The nature of data set [4]: ASA and L-leucine mixing solubility. The note with it: for precipitation after mixing: 5 wt. % total solids, on the order of minutes. On the procedure: The objective is to apply absolute solubility of ASA and L-Leu to a mixing study to determine if a spray drying approach is feasible. ASA and L-leucine was independently dissolved in preferred solvent: ASA in EtOH, and L-leucine in a sulfuric acid solution (pH 4.0) (which may increase L-leucine solubility in water). Proposed formulations were evaluated at a final total solids of 7 wt. % and 5 wt. %. In one embodiment, solvent ratio was 25/75 EtOH/Water. Precipitation of components was analyzed visually.

Data set [5] in a line: Anti-solvent evaluation of 5% w/w acetylsalicylic acid suspensions. Conditions: 5% w/w suspension, room temperature. On the procedure:
After considering a number of factors in the end it was determined that only n-heptane and toluene fulfilled all the requirements, and therefore these were selected for further evaluation. Suspensions of acetylsalicylic acid at 5% w/w were prepared with the various anti-solvents, by charging the required amount of anti-solvent, charging the required amount of acetylsalicylic acid, and then stirring until a homogeneous suspension was obtained. The suspensions were qualitatively evaluated at room temperature and then filtered using a 0.45 μm membrane, which was then placed in an oven and dried at 60° C. until the solvent had completely evaporated. A quantitative analysis was performed on the residue that remained in the membrane by weighing the membrane before and after the test.

Data set [6] can be described thus: ASA in ethanol spray solution stability evaluation. Conditions: for % ASA Purity / % SA: 9 wt % ASA in ethanol. On the procedure:
ASA degrades to salicylic acid (SA) as a function of time and temperature due to dissolution. Initial and cold 1 day solutions contained less than 0.5% SA.
9 wt % ASA was added to ethanol with constant stirring to stainless steel vessels. Samples were either stirred at ambient room temperature (approx. 22° C.) or 4° C. and sampled at 1, 3 and 6 days (Table 34).

≈ marks a conversion by molar mass, not a printed value. Read-outs that look alike come from different tables or passages of the source.

This note sets out measurements from patent publication US12144820B2, “Dry powder formulations for inhalation” (VECTURA INC., priority 2016, dated 2024).

The solubility is the concentration that dissolves in the medium under given conditions.

Regarding `CC(=O)Oc1ccccc1C(=O)O` [ASA Reference Standard], in data set [1], the “ASA Purity (%)” value amounted to 99.76% and the “SA Impurity (%)” value is on record as 0.24%.

As for `CC(=O)Oc1ccccc1C(=O)O` [ASA Standard], in data set [2], the “ASA Purity” value worked out at 99.76 ± 0.11% and the “SA Purity” value was determined as 0.24 ± 0.11%.

Regarding `CC(C)C[C@H](N)C(=O)O` [L-Leucine, L-leucine], the solubility stood at 10000 µg/mL (≈ 76.2 mM) in data set [3] (Neutral, EtOH/Water 0/100 (v/v), read-out: L-Leucine solubility); 17000 µg/mL (≈ 130 mM) in data set [3] (aqueous buffer, pH 3, EtOH/Water 0/100 (v/v), read-out: L-Leucine solubility); 9000 µg/mL (≈ 68.6 mM) in data set [3] (aqueous with cosolvent or surfactant or cyclodextrin, Neutral, EtOH/Water 10/90 (v/v), read-out: L-Leucine solubility); 400 µg/mL (≈ 3.05 mM) in data set [3] (aqueous with cosolvent or surfactant or cyclodextrin, Neutral, EtOH/Water 25/75 (v/v), read-out: L-Leucine solubility); 300 µg/mL (≈ 2.29 mM) in data set [3] (aqueous with cosolvent or surfactant or cyclodextrin, Neutral, EtOH/Water 50/50 (v/v), read-out: L-Leucine solubility); 11000 µg/mL (≈ 83.9 mM) in data set [3] (aqueous with cosolvent or surfactant or cyclodextrin, pH 3, EtOH/Water 10/90 (v/v), read-out: L-Leucine solubility). Further, the solubility in data set [3] (aqueous with cosolvent or surfactant or cyclodextrin, pH 3, EtOH/Water 50/50 (v/v), read-out: L-Leucine solubility) is 1000 µg/mL (≈ 7.62 mM); in data set [3] (organic solvent or mixture, Neutral, EtOH/Water 75/25 (v/v), read-out: L-Leucine solubility), 200 µg/mL (≈ 1.52 mM). Moreover, the L-Leucine solubility in data set [3] (Neutral, EtOH/Water 25/75 (v/v)) was 0.04 wt. %; in data set [3] (Neutral, EtOH/Water 50/50 (v/v)), 0.03 wt. %; in data set [3] (Neutral, EtOH/Water 75/25 (v/v)), 0.02 wt. %; in data set [3] (Neutral, EtOH/Water 90/10 (v/v)), “Insouble”; in data set [3] (pH 3, EtOH/Water 0/100 (v/v)) it was 1.7 wt. %; in data set [3] (pH 3, EtOH/Water 10/90 (v/v)) it was 1.0 wt. %. In addition, the L-Leucine solubility in data set [3] (pH 3, EtOH/Water 50/50 (v/v)) is 0.1 wt. %. Besides, the precipitation after mixing result in data set [4] is given as “no evidence of precipitation”. In data set [4] (7 wt. % solids, 85/15 ASA/L-leucine formulation, after mixing), the “time to precipitation out of solution” value is reported as “approximately 60 seconds”.

Turning to `CC(=O)Oc1ccccc1C(=O)O` [acetylsalicylic acid], the “solubility behaviour in anti-solvent” value in data set [5] (n-heptane) is listed as “phobic behavior”; in data set [5] (toluene), “partially soluble”. Besides, the ASA solubility in data set [3] (EtOH/Water 50/50 (v/v)) was 7.5 wt. %; in data set [3] (EtOH/Water 75/25 (v/v)), 17.4 wt. %; in data set [3] (EtOH/Water 90/10 (v/v)) it was 21.4 wt. %; in data set [3] (all solvent blends except 25/75 EtOH/water), “up to 5 wt. % total solids”. For the same molecule, the solubility in data set [3] (EtOH/Water 50/50 (v/v), aqueous with cosolvent or surfactant or cyclodextrin, read-out: ASA solubility) was found to be 72500 µg/mL (≈ 402 mM); in data set [3] (EtOH/Water 75/25 (v/v), organic solvent or mixture, read-out: ASA solubility) it was 118000 µg/mL (≈ 653 mM); in data set [3] (EtOH/Water 90/10 (v/v), organic solvent or mixture, read-out: ASA solubility) it was 220000 µg/mL (≈ 1220 mM). In addition, the precipitation after mixing entry in data set [4] was “no evidence of precipitation”. Besides, the “% ASA Purity” value in data set [6] (Ambient Conditions, 1 Day) came to 98.0%; in data set [6] (Ambient Conditions, 3 Day), 90.5%; in data set [6] (Ambient Conditions, 6 Day), 90.5%; in data set [6] (Ambient Conditions, Initial), 99.9%; in data set [6] (Controlled 4° C., 1 Day), 99.1%; in data set [6] (Controlled 4° C., 3 Day), 97.5%. For the same molecule, the “% ASA Purity” value is 96.7% in data set [6] (Controlled 4° C., 6 Day) and 99.9% in data set [6] (Controlled 4° C., Initial). For the same molecule, the “% SA” value worked out at 1.7% in data set [6] (Ambient Conditions, 1 Day); 7.5% in data set [6] (Ambient Conditions, 3 Day); 7.2% in data set [6] (Ambient Conditions, 6 Day); 0.1% in data set [6] (Ambient Conditions, Initial); 0.4% in data set [6] (Controlled 4° C., 1 Day); 2.0% in data set [6] (Controlled 4° C., 3 Day). The “% SA” value in data set [6] (Controlled 4° C., 6 Day) amounted to 2.3%; in data set [6] (Controlled 4° C., Initial), 0%. Also, in data set [6] (Initial and cold 1 day solutions), the “SA content of spray solution” value was “less than 0.5%”.
